Source: publication PMC9329436, “Optimization of the 4-anilinoquin(az)oline scaffold as epidermal growth factor receptor (EGFR) inhibitors for chordoma utilizing a toxicology profiling assay platform” (Scientific Reports, 2022)
Read-outs that look alike come from different tables or passages of the source.

Key:
Type in all cases: biochemical
[1] = molecular target: 320 wild-type protein kinases (Homo sapiens, UniProt P27361); details: singlicate
Excerpt: (§1) Table S4. Profiling of two compounds at two concentrations against 320 wild-type protein kinases; singlicate measurement; Residual activities (% of control).

[2] = molecular target: 320 wild-type protein kinases (Homo sapiens, UniProt Q9HC98); details: singlicate
Sequence of 320 wild-type protein kinases (Homo sapiens, UniProt Q9HC98) (Q9HC98 whole entry): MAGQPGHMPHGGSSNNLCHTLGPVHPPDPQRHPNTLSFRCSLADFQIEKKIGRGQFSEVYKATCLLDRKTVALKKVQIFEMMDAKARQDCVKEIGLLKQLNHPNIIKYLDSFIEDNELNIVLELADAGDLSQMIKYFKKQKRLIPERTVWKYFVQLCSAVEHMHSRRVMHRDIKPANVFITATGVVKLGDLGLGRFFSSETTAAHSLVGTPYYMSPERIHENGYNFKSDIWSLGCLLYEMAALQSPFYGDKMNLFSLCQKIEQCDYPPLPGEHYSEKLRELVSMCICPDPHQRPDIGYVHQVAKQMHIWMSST
Excerpt: as §1

[3] = molecular target: T1, 320 wild-type protein kinases (Homo sapiens, UniProt Q14164); details: IKK-epsilon, singlicate
T1 sequence (Q14164 1-716): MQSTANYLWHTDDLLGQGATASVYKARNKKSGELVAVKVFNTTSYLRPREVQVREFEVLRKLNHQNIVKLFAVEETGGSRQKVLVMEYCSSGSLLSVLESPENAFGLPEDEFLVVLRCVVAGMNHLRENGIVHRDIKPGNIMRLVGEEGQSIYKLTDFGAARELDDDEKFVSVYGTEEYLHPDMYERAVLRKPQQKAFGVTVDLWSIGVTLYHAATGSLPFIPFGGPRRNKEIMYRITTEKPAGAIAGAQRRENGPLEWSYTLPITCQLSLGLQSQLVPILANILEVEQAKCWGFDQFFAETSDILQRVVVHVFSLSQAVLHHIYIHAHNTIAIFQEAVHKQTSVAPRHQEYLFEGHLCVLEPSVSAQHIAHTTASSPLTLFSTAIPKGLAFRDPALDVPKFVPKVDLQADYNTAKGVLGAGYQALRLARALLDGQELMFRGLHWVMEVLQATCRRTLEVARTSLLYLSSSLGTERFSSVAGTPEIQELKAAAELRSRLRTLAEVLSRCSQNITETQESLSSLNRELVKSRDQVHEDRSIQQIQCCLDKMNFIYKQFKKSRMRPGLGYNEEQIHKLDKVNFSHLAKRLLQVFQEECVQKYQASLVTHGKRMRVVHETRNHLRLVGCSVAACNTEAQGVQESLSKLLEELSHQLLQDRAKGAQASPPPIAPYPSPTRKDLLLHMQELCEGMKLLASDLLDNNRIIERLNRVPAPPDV
Excerpt: as §1

[4] = molecular target: 320 wild-type protein kinases (Homo sapiens, UniProt Q02779); details: singlicate
Sequence of 320 wild-type protein kinases (Homo sapiens, UniProt Q02779) (Q02779 whole entry): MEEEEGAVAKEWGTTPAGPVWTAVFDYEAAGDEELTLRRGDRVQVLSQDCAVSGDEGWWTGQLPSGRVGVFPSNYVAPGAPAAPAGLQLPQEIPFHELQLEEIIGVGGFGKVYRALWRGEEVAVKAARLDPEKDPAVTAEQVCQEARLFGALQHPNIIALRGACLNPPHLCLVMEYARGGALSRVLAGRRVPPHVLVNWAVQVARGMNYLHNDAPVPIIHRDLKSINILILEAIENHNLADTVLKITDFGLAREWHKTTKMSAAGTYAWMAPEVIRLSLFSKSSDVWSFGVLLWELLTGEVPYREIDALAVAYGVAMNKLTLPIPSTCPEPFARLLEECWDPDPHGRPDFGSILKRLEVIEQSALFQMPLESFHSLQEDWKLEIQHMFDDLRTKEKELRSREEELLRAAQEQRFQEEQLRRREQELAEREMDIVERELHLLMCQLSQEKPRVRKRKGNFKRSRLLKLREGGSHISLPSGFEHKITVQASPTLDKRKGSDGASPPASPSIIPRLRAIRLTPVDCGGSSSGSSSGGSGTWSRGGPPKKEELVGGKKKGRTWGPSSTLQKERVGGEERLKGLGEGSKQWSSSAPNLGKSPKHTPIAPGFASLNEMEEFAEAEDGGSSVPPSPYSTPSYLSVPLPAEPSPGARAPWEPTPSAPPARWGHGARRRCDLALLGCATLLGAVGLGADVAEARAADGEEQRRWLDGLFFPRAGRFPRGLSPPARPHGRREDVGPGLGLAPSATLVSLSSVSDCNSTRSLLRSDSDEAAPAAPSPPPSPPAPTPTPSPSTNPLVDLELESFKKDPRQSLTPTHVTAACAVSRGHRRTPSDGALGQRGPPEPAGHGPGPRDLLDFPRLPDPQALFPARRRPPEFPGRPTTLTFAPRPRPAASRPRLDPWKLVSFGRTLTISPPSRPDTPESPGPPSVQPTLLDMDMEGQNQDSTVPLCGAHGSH
Excerpt: as §1

[5] = molecular target: 320 wild-type protein kinases (Homo sapiens, UniProt P07947); details: kinase YES, singlicate
Sequence of 320 wild-type protein kinases (Homo sapiens, UniProt P07947) (P07947 whole entry): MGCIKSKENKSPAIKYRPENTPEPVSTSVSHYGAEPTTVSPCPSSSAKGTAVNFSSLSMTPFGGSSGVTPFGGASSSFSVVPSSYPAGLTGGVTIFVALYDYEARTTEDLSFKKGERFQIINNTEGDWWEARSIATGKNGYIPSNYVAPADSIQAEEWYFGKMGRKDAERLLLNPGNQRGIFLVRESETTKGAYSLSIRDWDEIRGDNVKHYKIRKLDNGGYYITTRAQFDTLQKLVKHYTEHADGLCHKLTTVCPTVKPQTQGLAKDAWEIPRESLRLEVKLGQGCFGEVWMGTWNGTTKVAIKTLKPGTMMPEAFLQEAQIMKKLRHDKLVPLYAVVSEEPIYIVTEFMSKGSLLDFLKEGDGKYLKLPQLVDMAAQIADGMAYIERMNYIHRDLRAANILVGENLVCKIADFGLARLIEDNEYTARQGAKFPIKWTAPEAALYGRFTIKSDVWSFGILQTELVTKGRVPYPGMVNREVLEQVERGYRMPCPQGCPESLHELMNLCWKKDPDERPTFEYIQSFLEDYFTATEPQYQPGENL
Excerpt: as §1

[6] = molecular target: 320 wild-type protein kinases (Homo sapiens, UniProt Q9UQM7); details: CAMK2A, singlicate
Sequence of 320 wild-type protein kinases (Homo sapiens, UniProt Q9UQM7) (Q9UQM7 whole entry): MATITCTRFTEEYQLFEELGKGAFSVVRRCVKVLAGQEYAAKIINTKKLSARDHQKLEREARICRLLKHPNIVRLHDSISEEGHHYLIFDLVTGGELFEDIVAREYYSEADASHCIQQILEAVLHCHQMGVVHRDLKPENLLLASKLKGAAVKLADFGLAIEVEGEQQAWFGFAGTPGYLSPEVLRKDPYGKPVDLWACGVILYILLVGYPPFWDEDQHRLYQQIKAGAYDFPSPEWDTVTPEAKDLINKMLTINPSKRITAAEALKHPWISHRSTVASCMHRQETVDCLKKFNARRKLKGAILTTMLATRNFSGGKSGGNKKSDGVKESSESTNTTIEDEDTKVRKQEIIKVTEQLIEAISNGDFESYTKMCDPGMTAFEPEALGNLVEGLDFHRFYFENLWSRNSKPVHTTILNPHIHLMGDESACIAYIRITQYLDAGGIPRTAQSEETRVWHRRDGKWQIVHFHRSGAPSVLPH
Excerpt: as §1

[7] = molecular target: T2, 320 wild-type protein kinases (Homo sapiens, UniProt O14757); details: singlicate
T2 sequence (O14757 1-476): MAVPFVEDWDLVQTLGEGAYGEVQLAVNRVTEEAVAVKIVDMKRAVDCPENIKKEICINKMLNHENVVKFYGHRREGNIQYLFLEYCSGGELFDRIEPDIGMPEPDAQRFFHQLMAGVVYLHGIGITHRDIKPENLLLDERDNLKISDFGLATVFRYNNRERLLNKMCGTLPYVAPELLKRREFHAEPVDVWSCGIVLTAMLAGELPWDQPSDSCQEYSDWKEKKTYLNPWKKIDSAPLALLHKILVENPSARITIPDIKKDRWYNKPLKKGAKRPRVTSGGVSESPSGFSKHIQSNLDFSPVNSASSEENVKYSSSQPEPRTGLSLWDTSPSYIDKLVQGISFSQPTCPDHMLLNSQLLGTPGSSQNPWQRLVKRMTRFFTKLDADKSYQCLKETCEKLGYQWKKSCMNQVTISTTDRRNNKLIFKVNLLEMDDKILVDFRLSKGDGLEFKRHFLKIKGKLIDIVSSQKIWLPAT
Excerpt: as §1

[8] = molecular target: 320 wild-type protein kinases (Homo sapiens, UniProt P23443); details: kinase S6K, singlicate
Sequence of 320 wild-type protein kinases (Homo sapiens, UniProt P23443) (P23443 whole entry): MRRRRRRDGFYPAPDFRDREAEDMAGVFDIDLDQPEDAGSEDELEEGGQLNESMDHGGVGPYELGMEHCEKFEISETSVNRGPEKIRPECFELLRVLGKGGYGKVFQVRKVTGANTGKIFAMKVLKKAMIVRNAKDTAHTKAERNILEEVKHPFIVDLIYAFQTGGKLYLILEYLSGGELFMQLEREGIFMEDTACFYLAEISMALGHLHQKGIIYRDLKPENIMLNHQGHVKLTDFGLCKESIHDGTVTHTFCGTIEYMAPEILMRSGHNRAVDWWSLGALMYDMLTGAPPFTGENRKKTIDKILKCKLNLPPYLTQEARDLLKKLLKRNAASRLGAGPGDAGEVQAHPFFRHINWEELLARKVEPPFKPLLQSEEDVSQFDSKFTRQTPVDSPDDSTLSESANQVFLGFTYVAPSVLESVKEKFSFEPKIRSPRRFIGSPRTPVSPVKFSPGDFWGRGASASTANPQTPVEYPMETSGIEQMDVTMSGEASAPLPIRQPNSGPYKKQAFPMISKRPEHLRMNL
Excerpt: as §1

[9] = molecular target: T3, 320 wild-type protein kinases (Homo sapiens, UniProt P42679); details: MATK, singlicate
T3 sequence (P42679 1-507): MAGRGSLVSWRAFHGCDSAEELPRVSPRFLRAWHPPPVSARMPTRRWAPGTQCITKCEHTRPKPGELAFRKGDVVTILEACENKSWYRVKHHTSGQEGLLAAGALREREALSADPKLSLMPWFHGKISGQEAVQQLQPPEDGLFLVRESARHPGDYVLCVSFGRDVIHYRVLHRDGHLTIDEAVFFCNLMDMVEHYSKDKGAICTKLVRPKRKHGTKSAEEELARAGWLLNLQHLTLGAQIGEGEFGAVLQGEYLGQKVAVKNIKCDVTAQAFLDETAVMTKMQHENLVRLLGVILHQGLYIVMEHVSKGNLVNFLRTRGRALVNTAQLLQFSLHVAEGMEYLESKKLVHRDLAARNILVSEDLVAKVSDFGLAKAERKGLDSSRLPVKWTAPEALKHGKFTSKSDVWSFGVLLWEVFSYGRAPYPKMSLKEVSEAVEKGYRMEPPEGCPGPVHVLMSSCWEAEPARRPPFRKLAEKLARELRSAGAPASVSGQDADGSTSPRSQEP
Excerpt: as §1

[10] = molecular target: 320 wild-type protein kinases (Homo sapiens, UniProt Q16539); details: p38-alpha, singlicate
Sequence of 320 wild-type protein kinases (Homo sapiens, UniProt Q16539) (Q16539 whole entry): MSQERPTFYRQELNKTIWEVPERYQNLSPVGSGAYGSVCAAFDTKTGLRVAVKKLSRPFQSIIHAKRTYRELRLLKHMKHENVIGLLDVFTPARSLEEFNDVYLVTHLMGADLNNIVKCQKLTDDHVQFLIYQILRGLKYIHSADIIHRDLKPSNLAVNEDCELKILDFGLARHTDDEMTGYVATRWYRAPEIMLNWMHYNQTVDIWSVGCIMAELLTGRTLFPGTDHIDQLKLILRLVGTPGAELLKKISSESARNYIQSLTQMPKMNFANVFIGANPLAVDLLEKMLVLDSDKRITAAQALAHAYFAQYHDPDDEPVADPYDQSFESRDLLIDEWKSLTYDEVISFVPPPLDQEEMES
Excerpt: as §1

Sequence of 320 wild-type protein kinases (Homo sapiens, UniProt P27361) (P27361 whole entry): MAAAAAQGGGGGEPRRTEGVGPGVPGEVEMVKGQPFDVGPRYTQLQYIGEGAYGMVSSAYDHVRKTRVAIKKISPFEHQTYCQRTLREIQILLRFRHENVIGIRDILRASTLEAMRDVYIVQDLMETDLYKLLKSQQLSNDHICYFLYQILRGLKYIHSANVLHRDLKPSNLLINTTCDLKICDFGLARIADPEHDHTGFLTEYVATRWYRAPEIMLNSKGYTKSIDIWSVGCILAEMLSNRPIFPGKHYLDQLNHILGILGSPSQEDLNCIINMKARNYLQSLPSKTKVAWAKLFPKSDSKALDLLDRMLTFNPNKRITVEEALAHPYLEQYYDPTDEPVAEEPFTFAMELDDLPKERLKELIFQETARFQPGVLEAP

Row | SMILES | Residual activity ([1]; ERK1, 1.0E-06 M) | Residual activity ([1]; ERK1, 1.0E-07 M) | Residual activity ([2]; NEK6, 1.0E-06 M) | Residual activity ([2]; NEK6, 1.0E-07 M) | Residual activity ([3]; 1.0E-06 M) | Residual activity ([3]; 1.0E-07 M) | Residual activity ([4]; MAP3K10, 1.0E-06 M) | Residual activity ([4]; MAP3K10, 1.0E-07 M) | Residual activity, YES ([5]; assay conc. 1.0E-06 M) | Residual activity, YES ([5]; assay conc. 1.0E-07 M) | Residual activity ([6]; 1.0E-06 M) | Residual activity ([6]; 1.0E-07 M) | Residual activity ([7]; CHK1, 1.0E-06 M) | Residual activity ([7]; CHK1, 1.0E-07 M) | Residual activity, S6K ([8]; assay conc. 1.0E-06 M) | Residual activity, S6K ([8]; assay conc. 1.0E-07 M) | Residual activity ([9]; 1.0E-06 M) | Residual activity ([9]; 1.0E-07 M) | Residual activity ([10]; 1.0E-06 M) | Residual activity ([10]; 1.0E-07 M)
1 | C#Cc1cc(Nc2ncnc3cc(I)ccc23)ccc1Cl [Compound 41] | 97 % of control | 91 % of control | 92 % of control | 84 % of control | 94 % of control | 108 % of control | 93 % of control | 102 % of control | 83 % of control | 101 % of control | 93 % of control | 99 % of control | 85 % of control | 94 % of control | 123 % of control | 135 % of control | 95 % of control | 100 % of control | 71 % of control | 103 % of control
2 | C#Cc1cc(Nc2ncnc3cc(OC)c(OC)cc23)ccc1Cl [Compound 45] | 95 % of control | 92 % of control | 92 % of control | 90 % of control | 101 % of control | 108 % of control | 86 % of control | 92 % of control | 77 % of control | 100 % of control | 101 % of control | 104 % of control | 74 % of control | 94 % of control | 121 % of control | 122 % of control | 95 % of control | 108 % of control | 56 % of control | 96 % of control
